Measurements published in ChEMBL document CHEMBL1201862, “PubChem BioAssay data set” (2004).
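Compound exposure: 48 hours, 5 concentrations, 96-well plates. Abbreviation: GI50, concentration required for 50% inhibition of growth.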 The source made the active and inactive calls. No stated cut-off is given here; in the data, active = GI50 up to about 1.1 µM and inactive = higher.

How the values were obtained:
Test in all cases: inhibition of tumour cell growth, NCI panel, 48 h
UACC-62 = system: UACC-62
DLD-1 = system: DLD-1
HT-29 = system: HT-29
M14 = system: M14
Malme-3M = system: Malme-3M
LXFL 529 = system: LXFL 529
OVCAR-5 = system: OVCAR-5
SNB-19 = system: SNB-19
HOP-18 = system: HOP-18
LOX IMVI = system: LOX IMVI
OVCAR-8 = system: OVCAR-8
RXF 631 = system: RXF 631
SNB-75 = system: SNB-75
KM-20L2 = system: KM-20L2
SF-295 = system: SF-295
A549 = system: A549
OVCAR-4 = system: OVCAR-4
RXF 393 = system: RXF 393
OVCAR-3 = system: OVCAR-3
HL-60 = system: HL-60
SK-MEL-2 = system: SK-MEL-2
HOP-62 = system: HOP-62
SNB-78 = system: SNB-78
UO-31 = system: UO-31
MOLT-4 = system: MOLT-4
SF-539 = system: SF-539
EKVX = system: EKVX
CAKI-1 = system: CAKI-1
HCT-15 = system: HCT-15
NCI-H226 = system: NCI-H226
KM12 = system: KM12
ACHN = system: ACHN
SK-OV-3 = system: SK-OV-3
SN12C = system: SN12C
NCI-H522 = system: NCI-H522
K562 = system: K562
UACC-257 = system: UACC-257
HOP-92 = system: HOP-92
COLO 205 = system: COLO 205
SF-268 = system: SF-268
HCT-116 = system: HCT-116
DMS-273 = system: DMS-273
U-251 = system: U-251
NCI-H23 = system: NCI-H23
M19-MEL = system: M19-MEL
SW-620 = system: SW-620
TK-10 = system: TK-10
SK-MEL-28 = system: SK-MEL-28
DMS-114 = system: DMS-114
A498 = system: A498
786-0 = system: 786-0
CCRF-CEM = system: CCRF-CEM
IGROV-1 = system: IGROV-1
HCC 2998 = system: HCC 2998
SK-MEL-5 = system: SK-MEL-5
NCI-H460 = system: NCI-H460
RPMI-8226 = system: RPMI-8226

CCCCCCCCCCCCCCCC(=O)OCC1OC(n2cc(F)c(=O)[nH]c2=O)C(NC(=O)N(CCCl)N=O)C(O)C1O (configuration not stated)
GI50 (UACC-62): 10.3 nM (active)
GI50 (DLD-1): 2840 nM (inactive)
GI50 (HT-29): 4680 nM (inactive)
GI50 (M14): 4060 nM (inactive)
GI50 (Malme-3M): 4470 nM (inactive)
GI50 (LXFL 529): 5300 nM (inactive)
GI50 (OVCAR-5): 13100 nM (inactive)
GI50 (SNB-19): 979 nM (active)
GI50 (HOP-18): 16400 nM (inactive)
GI50 (LOX IMVI): 157 nM (active)
GI50 (OVCAR-8): 3860 nM (inactive)
GI50 (RXF 631): 3080 nM (inactive)
GI50 (SNB-75): 228 nM (active)
GI50 (KM-20L2): 5150 nM (inactive)
GI50 (SF-295): 156 nM (active)
GI50 (A549): 767 nM (active)
GI50 (OVCAR-4): 7960 nM (inactive)
GI50 (RXF 393): 2380 nM (inactive)
GI50 (OVCAR-3): 8040 nM (inactive)
GI50 (HL-60): 428 nM (active)
GI50 (SK-MEL-2): 1350 nM (inactive)
GI50 (HOP-62): 354 nM (active)
GI50 (SNB-78): 3850 nM (inactive)
GI50 (UO-31): 12300 nM (inactive)
GI50 (MOLT-4): 1210 nM (inactive)
GI50 (SF-539): 122 nM (active)
GI50 (EKVX): 2580 nM (inactive)
GI50 (CAKI-1): 4780 nM (inactive)
GI50 (HCT-15): 4950 nM
GI50 (NCI-H226): 10400 nM (inactive)
GI50 (KM12): 1860 nM (inactive)
GI50 (ACHN): 1640 nM (inactive)
GI50 (SK-OV-3): 5450 nM (inactive)
GI50 (SN12C): 2070 nM (inactive)
GI50 (NCI-H522): 5150 nM (inactive)
GI50 (K562): 1760 nM (inactive)
GI50 (UACC-257): 5940 nM (inactive)
GI50 (HOP-92): 3650 nM (inactive)
GI50 (COLO 205): 4410 nM (inactive)
GI50 (SF-268): 24.6 nM (active)
GI50 (HCT-116): 1220 nM (inactive)
GI50 (DMS-273): 343 nM (active)
GI50 (U-251): 58.5 nM (active)
GI50 (NCI-H23): 731 nM (active)
GI50 (M19-MEL): 2820 nM (inactive)
GI50 (SW-620): 1310 nM (inactive)
GI50 (TK-10): 10100 nM (inactive)
GI50 (SK-MEL-28): 2370 nM (inactive)
GI50 (DMS-114): 1120 nM (inactive)
GI50 (A498): 4440 nM (inactive)
GI50 (786-0): 166 nM (active)
GI50 (CCRF-CEM): 611 nM (active)
GI50 (IGROV-1): 4430 nM (inactive)
GI50 (HCC 2998): 2710 nM (inactive)
GI50 (SK-MEL-5): 3940 nM (inactive)
GI50 (NCI-H460): 152 nM (active)
GI50 (RPMI-8226): 3060 nM (inactive)
